Measured values as given in patent US7741341B2, “Benzimidazole-derivatives as factor Xa inhibitors” (sanofi-aventis Deutschland GmbH, priority 2003, dated 2010).

Each compound was assayed against T1, human factor Xa (Homo sapiens, UniProt P00742) (assay: Factor Xa assay (chromogenic, substrate S-2765)). Conditions: read-out: Ki(FXa).
T1 construct: human factor Xa (Enzyme Research Laboratories, Inc; South Bend, Ind.); purchased Enzyme Research Laboratories, Inc; South Bend, Ind
T1 sequence (P00742 235-488 limits assumed): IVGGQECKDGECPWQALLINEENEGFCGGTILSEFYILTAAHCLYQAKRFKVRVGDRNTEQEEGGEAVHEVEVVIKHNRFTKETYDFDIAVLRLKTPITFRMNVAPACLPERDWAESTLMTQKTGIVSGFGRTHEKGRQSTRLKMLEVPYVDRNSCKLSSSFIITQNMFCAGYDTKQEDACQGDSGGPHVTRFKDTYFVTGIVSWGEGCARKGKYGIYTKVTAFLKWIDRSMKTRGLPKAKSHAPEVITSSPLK
T1 sequence (P00742 41-179 partner limits assumed): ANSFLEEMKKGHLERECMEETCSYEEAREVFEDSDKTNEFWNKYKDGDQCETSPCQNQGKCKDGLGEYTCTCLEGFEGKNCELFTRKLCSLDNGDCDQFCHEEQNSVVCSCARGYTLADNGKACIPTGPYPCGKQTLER
Format: biochemical
Procedure: Purified enzymes were used in chromogenic assays.
The IC50 was determined by combining in appropriate wells of a Costar half-area microtiter plate 25 μl human factor Xa (Enzyme Research Laboratories, Inc.; South Bend, Ind.) in TBS-PEG; 40 μl 10% (v/v) DMSO in TBS-PEG (uninhibited control) or various concentrations of the compound to be tested diluted in 10% (v/v) DMSO in TBS-PEG; and substrate S-2765 (N(α)-benzyloxycarbonyl-D-Arg-Gly-L-Arg-p-nitroanilide; Kabi Pharmacia, Inc.; Franklin, Ohio) in TBS-PEG.
The assay was performed by pre-incubating the compound of formula I plus enzyme for 10 min. Then the assay was initiated by adding substrate to obtain a final volume of 100 μl. […] The enzyme concentration was 0.5 nM and substrate concentration was 140 μM.
CC(C)N1CCC(NC(=O)c2nc3ccccc3n2Cc2cc(-c3ccc(Cl)s3)on2)CC1 [Example 1, 1-[5-(5-Chloro-thiophen-2-yl)-isoxazol-3-ylmethyl]-1H-benzoimidazole-2-carboxylic acid (1-isopropyl-piperidin-4-yl)-amide] showed a Ki of 0.7 nM. CC(C)N1CCC(NC(=O)c2nc3ccccc3n2CC(=O)Nc2ccc(Cl)cc2)CC1 [Example 2, 1-[(4-Chloro-phenylcarbamoyl)-methyl]-1H-benzoimidazole-2-carboxylic acid (1-isopropyl-piperidin-4-yl)-amide] was tested, and the Ki was 3.1 nM. In the case of CC(C)N1CCC(NC(=O)c2nc3ccccc3n2CC(=O)Nc2ccc(Cl)cn2)CC1 [Example 3, 1-[(5-Chloro-pyridin-2-ylcarbamoyl)-methyl]-1H-benzoimidazole-2-carboxylic acid (1-isopropyl-piperidin-4-yl)-amide], the Ki is reported as 1.4 nM. O=C(NC1CCN(c2ccncn2)CC1)c1nc2ccccc2n1Cc1cc(-c2ccc(Cl)s2)on1 [Example 4, 1-[5-(5-Chloro-thiophen-2-yl)-isoxazol-3-ylmethyl]-1H-benzoimidazole-2-carboxylic acid (1-pyrimidin-4-yl-piperidin-4-yl)-amide] showed a Ki of 59.2 nM. With COC(=O)c1ccc2c(c1)nc(C(=O)NC1CCN(C(C)C)CC1)n2Cc1cc(-c2ccc(Cl)s2)on1 [Example 5a, 1-[5-(5-Chloro-thiophen-2-yl)-isoxazol-3-ylmethyl]-2-(1-isopropyl-piperidin-4-ylcarbamoyl)-1H-benzoimidazole-5-carboxylic acid methyl ester] the Ki was 2.5 nM. COC(=O)c1ccc2nc(C(=O)NC3CCN(C(C)C)CC3)n(Cc3cc(-c4ccc(Cl)s4)on3)c2c1 [Example 5b, 3-[5-(5-Chloro-thiophen-2-yl)-isoxazol-3-ylmethyl]-2-(1-isopropyl-piperidin-4-ylcarbamoyl)-3H-benzoimidazole-5-carboxylic acid methyl ester] was tested, and the Ki was 175 nM. With CC(C)N1CCC(NC(=O)c2nc3cc(C(=O)O)ccc3n2Cc2cc(-c3ccc(Cl)s3)on2)CC1 [Example 6, 1-[5-(5-Chloro-thiophen-2-yl)-isoxazol-3-ylmethyl]-2-(1-isopropyl-piperidin-4-ylcarbamoyl)-1H-benzoimidazole-5-carboxylic acid] the Ki was 3 nM. With CC(C)N1CCC(NC(=O)c2nc3ccc(C(=O)O)cc3n2Cc2cc(-c3ccc(Cl)s3)on2)CC1 [Example 7, 3-[5-(5-Chloro-thiophen-2-yl)-isoxazol-3-ylmethyl]-2-(1-isopropyl-piperidin-4-ylcarbamoyl)-3H-benzoimidazole-5-carboxylic acid] the Ki was 16.5 nM. For CC(C)N1CCC(NC(=O)c2nc3cc(C(=O)O)ccc3n2Cc2cnc(-c3ccc(Cl)s3)s2)CC1 [Example 9, 1-[2-(5-Chloro-thiophen-2-yl)-thiazol-5-ylmethyl]-2-(1-isopropyl-piperidin-4-ylcarbamoyl)-1H-benzoimidazole-5-carboxylic acid], the Ki was 94 nM. Work on COC(=O)c1cccc2c1nc(C(=O)NC1CCN(C(C)C)CC1)n2Cc1cc(-c2ccc(Cl)s2)on1 [Example 11a, 1-[5-(5-Chloro-thiophen-2-yl)-isoxazol-3-ylmethyl]-2-(1-isopropyl-piperidin-4-ylcarbamoyl)-1H-benzoimidazole-4-carboxylic acid methyl ester] yielded a Ki of 4 nM. For COC(=O)c1cccc2nc(C(=O)NC3CCN(C(C)C)CC3)n(Cc3cc(-c4ccc(Cl)s4)on3)c12 [Example 11b, 3-[5-(5-Chloro-thiophen-2-yl)-isoxazol-3-ylmethyl]-2-(1-isopropyl-piperidin-4-ylcarbamoyl)-3H-benzoimidazole-4-carboxylic acid methyl ester], the Ki was 1 nM. With CC(C)N1CCC(NC(=O)c2nc3c(C(=O)O)cccc3n2Cc2cc(-c3ccc(Cl)s3)on2)CC1 [Example 12, 1-[5-(5-Chloro-thiophen-2-yl)-isoxazol-3-ylmethyl]-2-(1-isopropyl-piperidin-4-ylcarbamoyl)-1H-benzoimidazole-4-carboxylic acid] the Ki was 3 nM. Work on CC(C)N1CCC(NC(=O)c2nc3cccc(C(=O)O)c3n2Cc2cc(-c3ccc(Cl)s3)on2)CC1 [Example 13, 3-[5-(5-Chloro-thiophen-2-yl)-isoxazol-3-ylmethyl]-2-(1-isopropyl-piperidin-4-ylcarbamoyl)-3H-benzoimidazole-4-carboxylic acid] yielded a Ki of 299 nM. CC(C)N1CCC(NC(=O)c2nc3cccnc3n2Cc2cc(-c3ccc(Cl)s3)on2)CC1 [Example 14, 3-[5-(5-Chloro-thiophen-2-yl)-isoxazol-3-ylmethyl]-3H-imidazo[4,5-b]pyridine-2-carboxylic acid (1-isopropyl-piperidin-4-yl)-amide] gave a Ki of 2390 nM. COC(=O)c1cccc2c1nc(C(=O)NC1CCN(C(C)C)CC1)n2CC(=O)Nc1ccc(Cl)cn1 [Example 15, 1-[(5-Chloro-pyridin-2-ylcarbamoyl)-methyl]-2-(1-isopropyl-piperidin-4-ylcarbamoyl)-1H-benzoimidazole-4-carboxylic acid methyl ester] showed a Ki of 11.5 nM. CC(C)N1CCC(NC(=O)c2nc3c(C(=O)O)cccc3n2CC(=O)Nc2ccc(Cl)cn2)CC1 [Example 16, 1-[(5-Chloro-pyridin-2-ylcarbamoyl)-methyl]-2-(1-isopropyl-piperidin-4-ylcarbamoyl)-1H-benzoimidazole-4-carboxylic acid] showed a Ki of 11 nM. Work on COC(=O)c1ccc2c(c1)nc(C(=O)NC1CCN(C(C)C)CC1)n2CC(=O)Nc1ccc(Cl)cn1 [Example 17a, 1-[(5-Chloro-pyridin-2-ylcarbamoyl)-methyl]-2-(1-isopropyl-piperidin-4-ylcarbamoyl)-1H-benzoimidazole-5-carboxylic acid methyl ester] yielded a Ki of 19.5 nM. For COC(=O)c1ccc2nc(C(=O)NC3CCN(C(C)C)CC3)n(CC(=O)Nc3ccc(Cl)cn3)c2c1 [Example 17b, 3-[(5-Chloro-pyridin-2-ylcarbamoyl)-methyl]-2-(1-isopropyl-piperidin-4-ylcarbamoyl)-3H-benzoimidazole-5-carboxylic acid methyl ester], the Ki was 371 nM. With CC(C)N1CCC(NC(=O)c2nc3cc(C(=O)O)ccc3n2CC(=O)Nc2ccc(Cl)cn2)CC1 [Example 18, 1-[(5-Chloro-pyridin-2-ylcarbamoyl)-methyl]-2-(1-isopropyl-piperidin-4-ylcarbamoyl)-1H-benzoimidazole-5-carboxylic acid] the Ki was 22.5 nM. CC(C)N1CCC(NC(=O)c2nc3ccc(C(=O)O)cc3n2CC(=O)Nc2ccc(Cl)cn2)CC1 [Example 19, 3-[(5-Chloro-pyridin-2-ylcarbamoyl)-methyl]-2-(1-isopropyl-piperidin-4-ylcarbamoyl)-3H-benzoimidazole-5-carboxylic acid] was tested, and the Ki was 23.5 nM. Work on CCOC(=O)OC(C)OC(=O)c1cccc2c1nc(C(=O)NC1CCN(C(C)C)CC1)n2Cc1cc(-c2ccc(Cl)s2)on1 (stereo not shown) [Example 20, 1-[5-(5-Chloro-thiophen-2-yl)-isoxazol-3-ylmethyl]-2-(1-isopropyl-piperidin-4-ylcarbamoyl)-1H-benzoimidazole-4-carboxylic acid 1-ethoxycarbonyloxy-ethyl ester] yielded a Ki of 8.5 nM. For CC(OC(=O)OC1CCCCC1)OC(=O)c1cccc2c1nc(C(=O)NC1CCN(C(C)C)CC1)n2Cc1cc(-c2ccc(Cl)s2)on1 (stereo not shown) [Example 21, 1-[5-(5-Chloro-thiophen-2-yl)-isoxazol-3-ylmethyl]-2-(1-isopropyl-piperidin-4-ylcarbamoyl)-1H-benzoimidazole-4-carboxylic acid 1-cyclohexyloxycarbonyloxy-ethyl ester], the Ki was 31 nM.
